Patent US10376520B2, “Methods for the treatment of cardiovascular disorders” (Galapagos NV, priority 2015, dated 2019)

Test system: RA patients
Assay: Total cholesterol determination, Study 1 (RA patients with inadequate response to methotrexate, add-on to MTX)
Format: in vivo, human
Method: Double-blind, placebo-controlled add on study in subjects with moderately to severely active RA who have an inadequate response to methotrexate (MTX) (oral or parenteral).
595 subjects randomized to one of 6 dose regimens of Compound 1 (dosed as a [Compound 1:HCl:3H2O]) (3 dose levels administered either once or twice daily) or placebo on top of each subject's stable dose of MTX.
Compound 1 (dosed as a [Compound 1:HCl:3H2O]) is dosed for twelve weeks once daily (q.d.) (50 mg, 100 mg or 200 mg) or twice daily (b.i.d.) (25 mg, 50 mg or 100 mg); or placebo.
At Week 12, the subjects on placebo who have not achieved 20% improvement in swollen joint count (SJC66) and tender joint count (TJC68) are re-randomized automatically to receive Compound 1 (dosed as a [Compound 1:HCl:3H2O]) either at 100 mg q.d. or 50 mg b.i.d. doses in a blinded fashion; subjects on 50 mg q.d. who have not achieved 20% improvement in SJC66 and TJC68 will be assigned to 100 mg q.d. and subjects on 25 mg b.i.d. that have not achieved a 20% improvement in SJC66 and TJC68 will be assigned to 50 mg b.i.d. Subjects who switch treatment at week 12 are handled as if they discontinued at week 12 for the purpose of statistical analysis, whereas subjects in the other groups will maintain their randomized treatment until Week 24.
This method is based on the determination of Δ^4 cholestenone after enzymatic cleavage of the cholesterol ester by cholesterol esterase, conversion of cholesterol by cholesterol oxidase, and subsequent measurement by the Trinder reaction of the hydrogen peroxide formed (Allain et al., 1974).
Cholesterol esters are cleaved by the action of cholesterol esterase to yield free cholesterol and fatty acids. Cholesterol oxidase then catalyzes the oxidation of cholesterol to cholest-4-en-3-one and hydrogen peroxide. In the presence of peroxidase, the hydrogen peroxide formed effects the oxidative coupling of phenol and 4-aminophenazone to form a red quinone-imine dye. The color intensity of the dye formed is directly proportional to the cholesterol concentration. It is determined by measuring the increase in absorbance.
Human serum and plasma samples cholesterol determination was done on a Roche/Hitachi Cobas c 701/702 system which automatically calculate the analyte concentration of each sample.

O=C(Nc1nc2cccc(-c3ccc(CN4CCS(=O)(=O)CC4)cc3)n2n1)C1CC1 [Compound 1, cyclopropanecarboxylic acid {5-[4-(1,1-dioxo-thiomorpholin-4-ylmethyl)-phenyl]-[1,2,4]triazolo[1,5-a]pyridin-2yl}-amide]
[total cholesterol] Mean percentage CFB - 24 weeks results (continued 25 mg b.i.d (N = 69), week 12): 6.38% | [total cholesterol] Mean percentage CFB - 24 weeks results (continued 25 mg b.i.d (N = 69), week 16): 5.51% | [total cholesterol] Mean percentage CFB - 24 weeks results (continued 25 mg b.i.d (N = 69), week 20): 6.95% | [total cholesterol] Mean percentage CFB - 24 weeks results (continued 25 mg b.i.d (N = 69), week 24): 6.53% | [total cholesterol] Mean percentage CFB - 24 weeks results (continued 50 mg b.i.d. (N = 85), week 1): 3.39% | [total cholesterol] Mean percentage CFB - 24 weeks results (continued 50 mg b.i.d. (N = 85), week 2): 3.87% | [total cholesterol] Mean percentage CFB - 24 weeks results (continued 50 mg b.i.d. (N = 85), week 4): 7.04% | [total cholesterol] Mean percentage CFB - 24 weeks results (continued 50 mg b.i.d. (N = 85), week 8): 5.63% | [total cholesterol] Mean percentage CFB - 24 weeks results (continued 50 mg b.i.d. (N = 85), week 12): 5.67% | [total cholesterol] Mean percentage CFB - 24 weeks results (continued 50 mg b.i.d. (N = 85), week 16): 6.23% | [total cholesterol] Mean percentage CFB - 24 weeks results (continued 50 mg b.i.d. (N = 85), week 20): 7.91% | [total cholesterol] Mean percentage CFB - 24 weeks results (continued 50 mg b.i.d. (N = 85), week 24): 7.97% | [total cholesterol] Mean percentage CFB - 24 weeks results (continued 50 mg q.d. (N = 63), week 1): 0.77% | [total cholesterol] Mean percentage CFB - 24 weeks results (continued 50 mg q.d. (N = 63), week 2): −0.22% | [total cholesterol] Mean percentage CFB - 24 weeks results (continued 50 mg q.d. (N = 63), week 4): 1.08% | [total cholesterol] Mean percentage CFB - 24 weeks results (continued 50 mg q.d. (N = 63), week 8): 3.49% | [total cholesterol] Mean percentage CFB - 24 weeks results (continued 50 mg q.d. (N = 63), week 12): 5.58% | [total cholesterol] Mean percentage CFB - 24 weeks results (continued 50 mg q.d. (N = 63), week 16): 5.15% | [total cholesterol] Mean percentage CFB - 24 weeks results (continued 50 mg q.d. (N = 63), week 20): 4.68% | [total cholesterol] Mean percentage CFB - 24 weeks results (continued 50 mg q.d. (N = 63), week 24): 6.75% | [total cholesterol] Mean percentage CFB - 24 weeks results (continued 100 mg b.i.d. (N = 84), week 1): 6.85% | [total cholesterol] Mean percentage CFB - 24 weeks results (continued 100 mg b.i.d. (N = 84), week 2): 8.38% | [total cholesterol] Mean percentage CFB - 24 weeks results (continued 100 mg b.i.d. (N = 84), week 4): 9.86% | [total cholesterol] Mean percentage CFB - 24 weeks results (continued 100 mg b.i.d. (N = 84), week 8): 14.79% | [total cholesterol] Mean percentage CFB - 24 weeks results (continued 100 mg b.i.d. (N = 84), week 12): 14.98% | [total cholesterol] Mean percentage CFB - 24 weeks results (continued 100 mg b.i.d. (N = 84), week 16): 12.82% | [total cholesterol] Mean percentage CFB - 24 weeks results (continued 100 mg b.i.d. (N = 84), week 20): 12.71% | [total cholesterol] Mean percentage CFB - 24 weeks results (continued 100 mg b.i.d. (N = 84), week 24): 15.39% | [total cholesterol] Mean percentage CFB - 24 weeks results (continued 100 mg q.d. (N = 85), week 1): 3.65% | [total cholesterol] Mean percentage CFB - 24 weeks results (continued 100 mg q.d. (N = 85), week 2): 2.32% | [total cholesterol] Mean percentage CFB - 24 weeks results (continued 100 mg q.d. (N = 85), week 4): 4.86% | [total cholesterol] Mean percentage CFB - 24 weeks results (continued 100 mg q.d. (N = 85), week 8): 3.79% | [total cholesterol] Mean percentage CFB - 24 weeks results (continued 100 mg q.d. (N = 85), week 12): 5.39% | [total cholesterol] Mean percentage CFB - 24 weeks results (continued 100 mg q.d. (N = 85), week 16): 1.87% | [total cholesterol] Mean percentage CFB - 24 weeks results (continued 100 mg q.d. (N = 85), week 20): 3.28% | [total cholesterol] Mean percentage CFB - 24 weeks results (continued 100 mg q.d. (N = 85), week 24): 5.05% | [total cholesterol] Mean percentage CFB - 24 weeks results (continued 200 mg q.d. (N = 86), week 1): 5.53% | [total cholesterol] Mean percentage CFB - 24 weeks results (continued 200 mg q.d. (N = 86), week 2): 9.86% | [total cholesterol] Mean percentage CFB - 24 weeks results (continued 200 mg q.d. (N = 86), week 4): 8.99% | [total cholesterol] Mean percentage CFB - 24 weeks results (continued 200 mg q.d. (N = 86), week 8): 6.72% | [total cholesterol] Mean percentage CFB - 24 weeks results (continued 200 mg q.d. (N = 86), week 12): 10.16% | [total cholesterol] Mean percentage CFB - 24 weeks results (continued 200 mg q.d. (N = 86), week 16): 9.19% | [total cholesterol] Mean percentage CFB - 24 weeks results (continued 200 mg q.d. (N = 86), week 20): 8.00% | [total cholesterol] Mean percentage CFB - 24 weeks results (continued 200 mg q.d. (N = 86), week 24): 9.94% | [total cholesterol] Mean percentage CFB - 24 weeks results (from 25 mg b.i.d. to 50 mg b.i.d at 12 weeks (N = 17), week 1): 0.55% | [total cholesterol] Mean percentage CFB - 24 weeks results (from 25 mg b.i.d. to 50 mg b.i.d at 12 weeks (N = 17), week 2): 2.37% | [total cholesterol] Mean percentage CFB - 24 weeks results (from 25 mg b.i.d. to 50 mg b.i.d at 12 weeks (N = 17), week 4): −2.60% | [total cholesterol] Mean percentage CFB - 24 weeks results (from 25 mg b.i.d. to 50 mg b.i.d at 12 weeks (N = 17), week 8): −2.81% | [total cholesterol] Mean percentage CFB - 24 weeks results (from 25 mg b.i.d. to 50 mg b.i.d at 12 weeks (N = 17), week 12): 0.30% | [total cholesterol] Mean percentage CFB - 24 weeks results (from 25 mg b.i.d. to 50 mg b.i.d at 12 weeks (N = 17), week 16): 4.23% | [total cholesterol] Mean percentage CFB - 24 weeks results (from 25 mg b.i.d. to 50 mg b.i.d at 12 weeks (N = 17), week 24): 2.66% | [total cholesterol] Mean percentage CFB - 24 weeks results (from 50 mg q.d. to 100 mg q.d. at 12 weeks (N = 19), week 1): 1.24% | [total cholesterol] Mean percentage CFB - 24 weeks results (from 50 mg q.d. to 100 mg q.d. at 12 weeks (N = 19), week 2): 4.36% | [total cholesterol] Mean percentage CFB - 24 weeks results (from 50 mg q.d. to 100 mg q.d. at 12 weeks (N = 19), week 4): 1.67% | [total cholesterol] Mean percentage CFB - 24 weeks results (from 50 mg q.d. to 100 mg q.d. at 12 weeks (N = 19), week 8): 2.29% | [total cholesterol] Mean percentage CFB - 24 weeks results (from 50 mg q.d. to 100 mg q.d. at 12 weeks (N = 19), week 12): 2.39% | [total cholesterol] Mean percentage CFB - 24 weeks results (from 50 mg q.d. to 100 mg q.d. at 12 weeks (N = 19), week 16): 7.55% | [total cholesterol] Mean percentage CFB - 24 weeks results (from 50 mg q.d. to 100 mg q.d. at 12 weeks (N = 19), week 20): 6.69% | [total cholesterol] Mean percentage CFB - 24 weeks results (from 50 mg q.d. to 100 mg q.d. at 12 weeks (N = 19), week 24): 5.15% | [total cholesterol] Mean percentage CFB - 24 weeks results (placebo switched to 50 mg b.i.d at week 12 (N = 15), week 16): 3.97% | [total cholesterol] Mean percentage CFB - 24 weeks results (placebo switched to 50 mg b.i.d at week 12 (N = 15), week 20): 5.80% | [total cholesterol] Mean percentage CFB - 24 weeks results (placebo switched to 50 mg b.i.d at week 12 (N = 15), week 24): 3.22%
